Consider six molecules from patent publication US12310936B2, “Pharmaceutical compositions for the treatment of cancer” (Seleq Oy, priority 2018, dated 2025).

Data set [1] concerns Native HCC cells. Put plainly: HCC cell viability with SMC in the presence of alfaketoacid analogues, native HCC cells. It is filed as cell-based. The note with it: IC50 of SMC in the presence of the labelled alfaketoacid analogue, relative to PPA treated HCC cells (=100). Here is the method: (§1) Normal hepatocytes and malignant hepatocytes (HCC) were incubated in the presence of various concentrations of SMC. After 72 h, the ATP content of lysed cells, which is proportional to the number of viable cells, was measured using a luminescence-based CellTiter Glo Kit (Promega) according to manufacturer's protocol using a FLx100 Luminometer (BioTek).

Data set [2] concerns HCC cells. Put plainly: Modulation of SMC cytotoxicity by agents that favor beta-elimination. Conditions: more prominent together with overexpression of KYAT1.
In data set [3] the test system is KYAT induced cells. As to the kind of experiment: HCC cell viability with SMC in the presence of alfaketoacid analogues, KYAT induced cells. It counts as cell-based. Conditions: IC50 of SMC in the presence of the labelled alfaketoacid analogue, relative to untreated KYAT induced cells. The method, then:
as §1

Data set [4] concerns human KYAT1. As to the kind of experiment: Selenol production by mutated KYAT1 using SMC as a substrate. It counts as biochemical. The note with it: mutant versus wild type KYAT1. An excerpt: The crystal structure of human KYAT1 has been determined for several complexes. The complex of KYAT1 with the cofactor PLP and the inhibitor L-Phe was used to create molecular models of Seleno-methyl Cystein (SMC) in complex with KYAT1 (FIG. 1). Our approach has been to identify residues that can be mutated in order to enhance beta-elimination of SMC, resulting in increased selenol production. This can be done by changing the substrate specificity of KYAT1 from kynurenine to SMC, or by changing kinetics of reprotonation of Calpha in the substrate. Several residues were mutated to check their potential involvement into the selenol formation.

Consider `O=C(O)C(=O)Cc1ccccc1` [PPA, phenyl pyruvic acid], for which the “SMC IC50 (percentage of control)” value in data set [1] was 100 percentage of control. Further, the “effect of the agent on the cytotoxicity of SMC” value (from here on “effect of the agent”) in data set [2] is “increase the cytotoxicity of SMC”.

As for `COC(=O)CCC(=O)C(=O)OC` [αKG, dimethyl-2-oxoglutarate], in data set [2], the “effect of the agent” value is “increase the cytotoxicity of SMC”.

In the case of `Cc1ncc(COP(=O)(O)O)c(C=O)c1O` [PLP, pyridoxal 5′-phosphate], the “effect of the agent” value in data set [2] is on record as “increase the cytotoxicity of SMC”.

In the case of indole pyruvic acid [IPA], the “SMC IC50 (percentage of control)” value in data set [1] is 38 percentage of control; in data set [3], 35 percentage of control.

B1: Y101H: mutant human kynurenine aminotransferase I, tyrosine to histidine substitution at position 101 (protein, listed as Homo sapiens)
chain: MAKQLQARRLDGIDYNPWVEFVKLASEHDVVNLGQGFPDFPPPDFAVEAFQHAVSGDFMLNQYTKTFGYPPLTKILASFFGELLGQEIDPLRNVLVTVGGHGALFTAFQALVDEGDEVIIIEPFFDCYEPMTMMAGGRPVFVSLKPGPIQNGELGSSSNWQLDPMELAGKFTSRTKALVLNTPNNPLGKVFSREELELVASLCQQHDVVCITDEVYQWMVYDGHQHISIASLPGMWERTLTIGSAGKTFSATGWKVGWVLGPDHIMKHLRTVHQNSVFHCPTQSQAAVAESFEREQLLFRQPSSYFVQFPQAMQRCRDHMIRSLQSVGLKPIIPQGSYFLITDISDFKRKMPDLPGAVDEPYDRRFVKWMIKNKGLVAIPVSIFYSVPHQKHFDHYIRFCFVKDEATLQAMDEKLRKWKVEL
B1: the “selenol production by KYAT1 using SMC as a substrate” value in data set [4] is given as “higher selenol production”.

B2: H279F: mutant human kynurenine aminotransferase I, histidine to phenylalanine substitution at position 279 (protein, listed as Homo sapiens)
chain: MAKQLQARRLDGIDYNPWVEFVKLASEHDVVNLGQGFPDFPPPDFAVEAFQHAVSGDFMLNQYTKTFGYPPLTKILASFFGELLGQEIDPLRNVLVTVGGYGALFTAFQALVDEGDEVIIIEPFFDCYEPMTMMAGGRPVFVSLKPGPIQNGELGSSSNWQLDPMELAGKFTSRTKALVLNTPNNPLGKVFSREELELVASLCQQHDVVCITDEVYQWMVYDGHQHISIASLPGMWERTLTIGSAGKTFSATGWKVGWVLGPDHIMKHLRTVHQNSVFFCPTQSQAAVAESFEREQLLFRQPSSYFVQFPQAMQRCRDHMIRSLQSVGLKPIIPQGSYFLITDISDFKRKMPDLPGAVDEPYDRRFVKWMIKNKGLVAIPVSIFYSVPHQKHFDHYIRFCFVKDEATLQAMDEKLRKWKVEL
Consider B2, for which the “selenol production by KYAT1 using SMC as a substrate” value in data set [4] is recorded as “higher selenol production”.
